According to patent publication US20240018145A1, “[…]-DEPENDENT EN[…] TREATING OR […]” (priority 2020, published 2024):

Each compound was assayed on FLU A (PR/8/34) (assay: Flu A Neuraminidase Antiviral Assay).
Format: cell-based

Point of comparison: `CN1C(=O)c2c(O)c(=O)ccn2N2C1CCCC2(C)c1ccc(F)cc1` (single isomer, unassigned) [Compound 26A, 1-(4-fluorophenyl)-7-hydroxy-1,5-dimethyl-1,2,3,4,4a,5-hexahydrodipyrido[1,2-b:2′,1′-f][1,2,4]triazine-6,8-dione], EC50 8.4 nM. Against it:
- CN1C(=O)c2c(O)c(=O)ccn2N2C(c3ccccc3C(F)(F)F)CCC12 (single isomer, unassigned) [Compound 15A, 6-hydroxy-4-methyl-1-(2-(trifluoromethyl)phenyl)-2,3,3a,4-tetrahydro-1H-pyrido[2,1-f]pyrrolo[1,2-b][1,2,4]triazine-5,7-dione] — higher, > 8100 nM
- CN1C(=O)c2c(O)c(=O)ccn2N2C(c3ccccc3C(F)(F)F)CCC12 (single isomer, unassigned) [Compound 15B, 6-hydroxy-4-methyl-1-(2-(trifluoromethyl)phenyl)-2,3,3a,4-tetrahydro-1H-pyrido[2,1-f]pyrrolo[1,2-b][1,2,4]triazine-5,7-dione] — 170-fold higher, 1450 nM
- CN1C(=O)c2c(O)c(=O)ccn2N2C(c3cc(F)ccc3OC(F)F)CCCC12 (single isomer, unassigned) [Compound 17A, 1-(2-(difluoromethoxy)-5-fluorophenyl)-7-hydroxy-5-methyl-1,2,3,4,4a,5-hexahydrodipyrido[1,2-b:2′,1′-f][1,2,4]triazine-6,8-dione] — 420-fold higher, 3510 nM
- CN1C(=O)c2c(O)c(=O)ccn2N2C(c3cc(F)ccc3OC(F)F)CCCC12 (single isomer, unassigned) [Compound 17B, 1-(2-(difluoromethoxy)-5-fluorophenyl)-7-hydroxy-5-methyl-1,2,3,4,4a,5-hexahydrodipyrido[1,2-b:2′,1′-f][1,2,4]triazine-6,8-dione] — 12-fold higher, 103 nM
- CN1C(=O)c2c(O)c(=O)ccn2N2C1CCCC2(C)c1ccccc1 (single isomer, unassigned) [Compound 18A, 7-hydroxy-1,5-dimethyl-1-phenyl-1,2,3,4,4a,5-hexahydrodipyrido[1,2-b:2′,1′-f][1,2,4]triazine-6,8-dione] — within 1.5-fold, 7.1 nM
- CN1C(=O)c2c(O)c(=O)ccn2N2C1CCCC2(C)c1ccccc1 (single isomer, unassigned) [Compound 18B, 7-hydroxy-1,5-dimethyl-1-phenyl-1,2,3,4,4a,5-hexahydrodipyrido[1,2-b:2′,1′-f][1,2,4]triazine-6,8-dione] — 42-fold higher, 356 nM
- COc1ccccc1C1CCCC2N(C)C(=O)c3c(O)c(=O)ccn3N12 (single isomer, unassigned) [Compound 19A, 7-hydroxy-1-(2-methoxyphenyl)-5-methyl-1,2,3,4,4a,5-hexahydrodipyrido[1,2-b:2′,1′-f][1,2,4]triazine-6,8-dione] — higher, > 8100 nM
- COc1ccccc1C1CCCC2N(C)C(=O)c3c(O)c(=O)ccn3N12 (single isomer, unassigned) [Compound 19B, 7-hydroxy-1-(2-methoxyphenyl)-5-methyl-1,2,3,4,4a,5-hexahydrodipyrido[1,2-b:2′,1′-f][1,2,4]triazine-6,8-dione] — 41-fold higher, 348 nM
- CN1C(=O)c2c(O)c(=O)ccn2N2C1CCCC2(C)c1ccccc1Cl (single isomer, unassigned) [Compound 20A, 1-(2-chlorophenyl)-7-hydroxy-1,5-dimethyl-1,2,3,4,4a,5-hexahydrodipyrido[1,2-b:2′,1′-f][1,2,4]triazine-6,8-dione] — 67-fold higher, 564 nM
- CN1C(=O)c2c(O)c(=O)ccn2N2C1CCCC2(C)c1ccccc1Cl (single isomer, unassigned) [Compound 20B, 1-(2-chlorophenyl)-7-hydroxy-1,5-dimethyl-1,2,3,4,4a,5-hexahydrodipyrido[1,2-b:2′,1′-f][1,2,4]triazine-6,8-dione] — 1.8-fold lower, 4.6 nM
- CN1C(=O)c2c(O)c(=O)ccn2N2C1CCCC21CCc2ccccc21 (single isomer, unassigned) [Compound 21A, 7-hydroxy-5-methyl-2′,3,3′,4,4a,5-hexahydro-2H-spiro[dipyrido[1,2-b:2′,1′-f][1,2,4]triazine-1,1′-indene]-6,8-dione] — higher, > 8100 nM
- CN1C(=O)c2c(O)c(=O)ccn2N2C1CCCC21CCc2ccccc21 (single isomer, unassigned) [Compound 21B, 7-hydroxy-5-methyl-2′,3,3′,4,4a,5-hexahydro-2H-spiro[dipyrido[1,2-b:2′,1′-f][1,2,4]triazine-1,1′-indene]-6,8-dione] — 3.2-fold lower, 2.6 nM
- CN1C(=O)c2c(O)c(=O)ccn2N2C1CCCC21CCc2ccccc21 (single isomer, unassigned) [Compound 21C, 7-hydroxy-5-methyl-2′,3,3′,4,4a,5-hexahydro-2H-spiro[dipyrido[1,2-b:2′,1′-f][1,2,4]triazine-1,1′-indene]-6,8-dione] — 190-fold higher, 1600 nM
- CN1C(=O)c2c(O)c(=O)ccn2N2C1CCCC21CCc2ccccc21 (single isomer, unassigned) [Compound 21D, 7-hydroxy-5-methyl-2′,3,3′,4,4a,5-hexahydro-2H-spiro[dipyrido[1,2-b:2′,1′-f][1,2,4]triazine-1,1′-indene]-6,8-dione] — 180-fold higher, 1550 nM
- CCC1(c2ccccc2)CCCC2N(C)C(=O)c3c(O)c(=O)ccn3N21 (single isomer, unassigned) [Compound 22A, 1-ethyl-7-hydroxy-5-methyl-1-phenyl-1,2,3,4,4a,5-hexahydrodipyrido[1,2-b:2′,1′-f][1,2,4]triazine-6,8-dione] — higher, > 8100 nM
- CCC1(c2ccccc2)CCCC2N(C)C(=O)c3c(O)c(=O)ccn3N21 (single isomer, unassigned) [Compound 22B, 1-ethyl-7-hydroxy-5-methyl-1-phenyl-1,2,3,4,4a,5-hexahydrodipyrido[1,2-b:2′,1′-f][1,2,4]triazine-6,8-dione] — 630-fold higher, 5290 nM
- CCC1(c2ccccc2)CCCC2N(C)C(=O)c3c(O)c(=O)ccn3N21 (single isomer, unassigned) [Compound 22C, 1-ethyl-7-hydroxy-5-methyl-1-phenyl-1,2,3,4,4a,5-hexahydrodipyrido[1,2-b:2′,1′-f][1,2,4]triazine-6,8-dione] — higher, > 8100 nM
- CCC1(c2ccccc2)CCCC2N(C)C(=O)c3c(O)c(=O)ccn3N21 (single isomer, unassigned) [Compound 22D, 1-ethyl-7-hydroxy-5-methyl-1-phenyl-1,2,3,4,4a,5-hexahydrodipyrido[1,2-b:2′,1′-f][1,2,4]triazine-6,8-dione] — within 1.5-fold, 11 nM
- CN1C(=O)c2c(O)c(=O)ccn2N2C1CCCC2(C)c1c(F)cccc1F (single isomer, unassigned) [Compound 23A, 1-(2,6-difluorophenyl)-7-hydroxy-1,5-dimethyl-1,2,3,4,4a,5-hexahydrodipyrido[1,2-b:2′,1′-f][1,2,4]triazine-6,8-dione] — higher, > 8100 nM
- CN1C(=O)c2c(O)c(=O)ccn2N2C1CCCC2(C)c1c(F)cccc1F (single isomer, unassigned) [Compound 23B, 1-(2,6-difluorophenyl)-7-hydroxy-1,5-dimethyl-1,2,3,4,4a,5-hexahydrodipyrido[1,2-b:2′,1′-f][1,2,4]triazine-6,8-dione] — 3.2-fold lower, 2.6 nM
- CN1C(=O)c2c(O)c(=O)ccn2N2C1CCCC2(C)c1ccccc1F (single isomer, unassigned) [Compound 24A, 1-(2-fluorophenyl)-7-hydroxy-1,5-dimethyl-1,2,3,4,4a,5-hexahydrodipyrido[1,2-b:2′,1′-f][1,2,4]triazine-6,8-dione] — 4-fold lower, 2.1 nM
- CN1C(=O)c2c(O)c(=O)ccn2N2C1CCCC2(C)c1ccccc1F (single isomer, unassigned) [Compound 24B, 1-(2-fluorophenyl)-7-hydroxy-1,5-dimethyl-1,2,3,4,4a,5-hexahydrodipyrido[1,2-b:2′,1′-f][1,2,4]triazine-6,8-dione] — 150-fold higher, 1240 nM
- CN1C(=O)c2c(O)c(=O)ccn2N2C1CCCC2(C)c1cccc(F)c1 (single isomer, unassigned) [Compound 25A, 1-(3-fluorophenyl)-7-hydroxy-1,5-dimethyl-1,2,3,4,4a,5-hexahydrodipyrido[1,2-b:2′,1′-f][1,2,4]triazine-6,8-dione] — 2.4-fold lower, 3.5 nM
- CN1C(=O)c2c(O)c(=O)ccn2N2C1CCCC2(C)c1cccc(F)c1 (single isomer, unassigned) [Compound 25B, 1-(3-fluorophenyl)-7-hydroxy-1,5-dimethyl-1,2,3,4,4a,5-hexahydrodipyrido[1,2-b:2′,1′-f][1,2,4]triazine-6,8-dione] — 8.4-fold higher, 70.7 nM
- CN1C(=O)c2c(O)c(=O)ccn2N2C1CCCC2(C)c1ccc(F)cc1 (single isomer, unassigned) [Compound 26B, 1-(4-fluorophenyl)-7-hydroxy-1,5-dimethyl-1,2,3,4,4a,5-hexahydrodipyrido[1,2-b:2′,1′-f][1,2,4]triazine-6,8-dione] — 210-fold higher, 1800 nM
- CN1C(=O)c2c(O)c(=O)ccn2N2C1CCCC2(C)c1ncccc1F (single isomer, unassigned) [Compound 27A, 1-(3-fluoropyridin-2-yl)-7-hydroxy-1,5-dimethyl-1,2,3,4,4a,5-hexahydrodipyrido[1,2-b:2′,1′-f][1,2,4]triazine-6,8-dione] — 100-fold higher, 859 nM
- CN1C(=O)c2c(O)c(=O)ccn2N2C1CCCC2(C)c1ncccc1F (single isomer, unassigned) [Compound 27B, 1-(3-fluoropyridin-2-yl)-7-hydroxy-1,5-dimethyl-1,2,3,4,4a,5-hexahydrodipyrido[1,2-b:2′,1′-f][1,2,4]triazine-6,8-dione] — 2-fold higher, 17.1 nM
- CN1C(=O)c2c(O)c(=O)ccn2N2C1CCCC2(C)c1cccc(Cl)c1 (single isomer, unassigned) [Compound 28A, 1-(3-chlorophenyl)-7-hydroxy-1,5-dimethyl-1,2,3,4,4a,5-hexahydrodipyrido[1,2-b:2′,1′-f][1,2,4]triazine-6,8-dione] — 1.6-fold lower, 5.2 nM
- CN1C(=O)c2c(O)c(=O)ccn2N2C1CCCC2(C)c1cccc(Cl)c1 (single isomer, unassigned) [Compound 28B, 1-(3-chlorophenyl)-7-hydroxy-1,5-dimethyl-1,2,3,4,4a,5-hexahydrodipyrido[1,2-b:2′,1′-f][1,2,4]triazine-6,8-dione] — 33-fold higher, 278 nM
- CC1CCC2N(C)C(=O)c3c(O)c(=O)ccn3N2C1(C)c1ccccc1 (single isomer, unassigned) [Compound 29A, 7-hydroxy-1,2,5-trimethyl-1-phenyl-1,2,3,4,4a,5-hexahydrodipyrido[1,2-b:2′,1′-f][1,2,4]triazine-6,8-dione] — 220-fold higher, 1860 nM
